Laboratory results as given in patent publication US20040091985A1, “NAD phosphite oxidoreductase, a novel catalyst from bacteria for regeneration of NAD(P)H” (priority 2002, published 2004).
Values joined by “and” are separate entries in the source; they are usually repeats but may differ in a detail not shown here. Equal entries are not always repeated. “Also recorded” adds a separate entry of the source.

How the values were obtained:
PtxD [1] = target: T1, PtxD (Stutzerimonas stutzeri, UniProt O69054); format: biochemical, Pseudomonas stutzeri WM88; set-up: made in house
T1 sequence (O69054 1-336): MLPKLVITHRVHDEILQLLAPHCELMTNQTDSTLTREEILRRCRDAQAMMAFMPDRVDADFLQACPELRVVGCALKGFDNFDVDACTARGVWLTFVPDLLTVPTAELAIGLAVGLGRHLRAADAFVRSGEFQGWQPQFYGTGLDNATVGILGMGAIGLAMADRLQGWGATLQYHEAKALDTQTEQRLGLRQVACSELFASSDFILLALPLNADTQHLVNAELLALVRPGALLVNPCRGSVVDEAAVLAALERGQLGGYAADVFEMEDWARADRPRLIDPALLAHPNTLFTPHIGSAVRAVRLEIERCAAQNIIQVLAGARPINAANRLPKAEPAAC

PtxD [2] = target: T1, PtxD; format: biochemical, Pseudomonas stutzeri WM88; set-up: made in house; remark: listed apart in the source
PtxD [3] = target: T1, PtxD; format: biochemical, Pseudomonas stutzeri WM88; set-up: made in house; remark: listed apart in the source
PtxD [4] = target: T1, PtxD; format: biochemical, Pseudomonas stutzeri WM88; set-up: made in house; remark: listed apart in the source
PtxD/HLADH = format: biochemical
PtxD [5] = target: PtxD (Stutzerimonas stutzeri, UniProt O69054); format: biochemical
PtxD/LLDH = PtxD/LLDH (Stutzerimonas stutzeri, UniProt O69054); format: biochemical
PtxD [6] = target: T1, PtxD; test: Initial rate studies of PtxD in the presence of products (NADH, phosphate) and dead end inhibitor sulfite; format: biochemical, Pseudomonas stutzeri WM88; set-up: made in house
FDH = settings: read-out: Ki, inhibition of FDH; cited from earlier work
PtxD [7] = target: T1, PtxD; test: Initial rate studies of PtxD with NAD and phosphite, kinetic model fitting

Question: For `[Cl-].[Na+]` [NaCl], which activity left (PtxD [1]) is on record?
Answer: 37%

Question: For arsenate, which “reduction of potential substrate by PtxD with NADH (reverse direction)” value (from here on “reduction of potential substrate by PtxD”) (PtxD [2]) is on record?
Answer: unable to catalyze the reduction

Question: With `CC(C)CC(O)C(=O)O` (racemic) [DL-Hydroxyisocaproate] as the compound, how does the “inhibitory activity on PtxD, in words” value (PtxD [3]) read?
Answer: moderately inhibited

Question: For `NCCP(=O)(O)O` [Aminoethylphosphonate], which “reduction of potential substrate by PtxD” value (PtxD [2]) is on record?
Answer: unable to catalyze the reduction

Question: With `O=C(O)[C@H](O)CO` [D-Glycerate] as the compound, how does the “inhibitory activity on PtxD, in words” value (PtxD [3]) read?
Answer: moderately inhibited

Question: Which “effect on enzyme activity” value (PtxD [1]) does the source give for `O=C(O)CN(CCN(CC(=O)O)CC(=O)O)CC(=O)O` [EDTA] here?
Answer: no effect

Question: With `Nc1ncnc2c1ncn2[C@@H]1O[C@H](COP(=O)(O)OP(=O)(O)OP(=O)(O)O)[C@@H](O)[C@H]1O` [ATP] as the compound, how does the “inhibitory activity on PtxD, in words” value (PtxD [3]) read?
Answer: weak enzyme inhibitors

Question: With `Nc1ncnc2c1ncn2[C@@H]1O[C@H](COP(=O)(O)O)[C@@H](O)[C@H]1O` [AMP] as the compound, how does the “inhibitory activity on PtxD, in words” value (PtxD [3]) read?
Answer: does not inhibit

Question: With Arsenite as the compound, how does the “inhibitory activity on PtxD, in words” value (PtxD [3]) read?
Answer: moderately inhibited

Question: For `NC(=O)c1ccc[n+]([C@@H]2O[C@H](COP(=O)([O-])OP(=O)(O)OC[C@H]3O[C@@H](n4cnc5c(N)ncnc54)[C@H](OP(=O)(O)O)[C@@H]3O)[C@@H](O)[C@H]2O)c1` [NADP], which “Activity, cofactors” value (PtxD [4]) is on record?
Answer: 3.4% and 7.1% and 0.4% and 1.1%

Question: And the “ability to substitute for NAD” value (PtxD [4])?
Answer: able to substitute for NAD; also recorded: can substitute for NAD

Question: What about the “inhibitory activity on PtxD, in words” value (PtxD [3]) of the same compound?
Answer: weak enzyme inhibitors

Question: With `NC(=O)c1ccc[n+]([C@@H]2O[C@H](COP(=O)([O-])OP(=O)(O)OC[C@H]3O[C@@H](n4cnc5c(N)ncnc54)[C@H](O)[C@@H]3O)[C@@H](O)[C@H]2O)c1` [NAD] as the compound, how does the “TN (NAD^+)” value (PtxD/HLADH) read?
Answer: 123

Question: And the “TTN (NAD^+)” value (PtxD/HLADH)?
Answer: 2000

Question: And the “total turnover numbers of NAD^+” value (PtxD [5])?
Answer: up to 2000

Question: What about the “TN (NAD^+)” value (PtxD/LLDH) of the same compound?
Answer: 12

Question: What about the “TTN (NAD^+)” value (PtxD/LLDH) of the same compound?
Answer: 2000

Question: And the Ki (PtxD [6]; Ki, inhibition of PtxD)?
Answer: 223 µM

Question: And the “Activity, cofactors” value (PtxD [4])?
Answer: 100.00%

Question: What about the Ki (FDH) of the same compound?
Answer: 150 µM

Question: What does the source list for `O=S(O)O` [Sulfite]?
Answer: Ki (PtxD [6]; Kii): 4.97 µM and 1.15 µM; Ki (PtxD [6]; Kis with respect to NAD): 10.8 ± 0.1 µM; Ki (PtxD [6]; Kis with respect to phosphite): 16.1 ± 0.1 µM; inhibitory activity on PtxD, in words (PtxD [3]): strong inhibitor

Question: With Phosphite as the compound, how does the “Activity, substrates” value (PtxD [4]) read?
Answer: 100.00%

Question: What about the Km (PtxD [7]) of the same compound?
Answer: 53.1 µM and ~50 µM

Question: For `O=C(O)O` [bicarbonate], which “reduction of potential substrate by PtxD” value (PtxD [2]) is on record?
Answer: unable to catalyze the reduction

Question: With NADH as the compound, how does the “type of inhibition of PtxD” value (PtxD [6]) read?
Answer: competitive inhibitor

Question: For `O=NO` [Nitrite], which “inhibitory activity on PtxD, in words” value (PtxD [3]) is on record?
Answer: moderately inhibited

Question: With `O=C(O)CN(CCOCCOCCN(CC(=O)O)CC(=O)O)CC(=O)O` [EGTA] as the compound, how does the “effect on enzyme activity” value (PtxD [1]) read?
Answer: no effect

Question: For `O=C(O)C(=O)CO` [hydroxypyruvate], which “reduction of substrate by PtxD with NADH” value (PtxD [2]) is on record?
Answer: 0.14 units/mg

Question: Which “inhibitory activity on PtxD, in words” value (PtxD [3]) does the source give for `Nc1ncnc2c1ncn2[C@@H]1O[C@H](COP(=O)(O)OP(=O)(O)O)[C@@H](O)[C@H]1O` [ADP] here?
Answer: weak enzyme inhibitors

Question: With `Nc1ncnc2c1ncn2[C@@H]1O[C@H](COP(=O)(O)OP(=O)(O)OC[C@H]2OC(O)[C@H](O)[C@@H]2O)[C@@H](O)[C@H]1O` (stereo partly shown) [ADPR, ADP-ribose] as the compound, how does the “inhibitory activity on PtxD, in words” value (PtxD [3]) read?
Answer: weak enzyme inhibitors

Question: With `O=C(O)C(O)CO` (stereo not shown) [glycerate] as the compound, how does the “reduction of potential substrate by PtxD” value (PtxD [2]) read?
Answer: unable to catalyze the reduction
